Reference: patent publication US4771043A, “Steroidic aromatase inhibitors” (Farmitalia Carlo Erba, S.p.A., priority 1985, dated 1988)

What was measured:
[1] = tested on: human placental aromatase; experiment: Aromatase inhibition in vitro (human placental microsomes, 3H2O release from 4-[1β,2β-3H]androstene-3,17-dione); format: biochemical; conditions: comparison with e.g. 4-OH-A
Experimental: (§1) Aromatase inhibition by the compounds of the present invention was determined both in vitro (human placental aromatase), and in vivo (ovarian aromatase activity) in rats.
Aromatase inhibition in vitro was determined as follows: the enzyme system was isolated from the microsomal fraction of human placental tissue according to standard procedure. The assay of Thompson and Siiteri [E. A. Thompson and P. K. Siiteri, J. Biol. Chem. 249, 5364, 1974] which determines the rate of aromatization as measured by the liberation of ^3 H2 O from 4-[1β,2β-^3 H]androstene-3,17-dione was used. All incubations were carried out in a shaking water bath at 37° C. in air in 10 mM potassium phosphate buffer, pH 7.5, which contained 100 mM KCl, 1 mM EDTA and 1 mM dithiothreitol. The experiments were carried out in 1 ml incubation volume containing 50 nM 4-[^3 H]androstenedione, various concentrations of the inhibitors, 100 μM NADPH and 0.05 mg of microsomal proteins. After 15 minutes of incubation the reaction was stopped by the addition of chloroform (5 ml). After centrifugation at 1500×g for 5 minutes, aliquots (0.5 ml) were removed from the water phase for determination of ^3 H2 O formed. […] Aromatase inhibition in vivo was determined in rats by the following procedure: […]

rat ovarian aromatase = experiment: Inhibition of rat ovarian aromatase in vivo (PMSG-treated adult female rats, oral dosing, ovarian microsomes assayed 24 hours later); conditions: for % AROMATASE INHIBITION: rat ovarian microsomes 24 hours after dosing, versus vehicle treated group
Experimental: as §1
adult female rats were twice treated subcutaneously with 100 I.U. pregnant mares' serum gonadotropin (PMSG) at 4 days' interval, in order to increase ovarian aromatase activity, according to Brodie procedure [A. M. H. Brodie et al, Steroids 38, 693, 1981]. Three days after the second PMSG treatment, groups of 6 animals each were given orally the vehicle (0.5% methocel) or the inhibitor at the dose reported in the following table. Animals were killed 24 hours later, microsomes were isolated from ovaries and their aromatase activity determined using a method similar to that described above for the evaluation of the in vitro activity. The incubation were carried out for 30 minutes in 1 ml incubation volume containing 0.1 mg of microsomal proteins, 100 nM 4-[^3 H]androstenedione and 100 μM NADPH.
% inhibition of control aromatase activity was calculated.

[2] = women, R. C. Coombes et al., Lancet II, 1237, 1984; cited from earlier work

For `C[C@]12C=CC(=O)C=C1[C@@H](N=[N+]=[N-])C[C@@H]1[C@@H]2CC[C@]2(C)C(=O)CC[C@@H]12` [FCE 24403, 6α-azido androsta-1,4-diene-3,17-dione], the “in vitro aromatase inhibiting potency compared with reference compounds (in words)” value [1] was “less potent in vitro than, e.g., 4-OH-A”, the “% AROMATASE INHIBITION” value (rat ovarian aromatase; 10 mg/kg p.o.) was 81% and the “effectiveness in vivo by oral route (in words)” value (“effectiveness in vivo” below) (rat ovarian aromatase; 10 mg/kg) was “very effective”. For the same molecule, the “% AROMATASE INHIBITION” value (rat ovarian aromatase; 30 mg/kg p.o.) was 89%.

For `C[C@]12CCC(=O)C(O)=C1CC[C@@H]1[C@@H]2CC[C@]2(C)C(=O)CC[C@@H]12` [4-OH-A, 4-hydroxyandrosta-4-ene-3,17-dione, reference compound], the “conjugation after oral administration (in words)” value [2] is given as “extensively conjugated after oral administration”, the “% AROMATASE INHIBITION” value (rat ovarian aromatase; 30 mg/kg p.o.) is given as 7% and the “% AROMATASE INHIBITION” value (rat ovarian aromatase; 100 mg/kg p.o.) is given as 21%. The “effectiveness in vivo” value (rat ovarian aromatase; 100 mg/kg) was “ineffective”.

For `C[C@]12C=CC(=O)C=C1CC[C@@H]1[C@@H]2CC[C@]2(C)OC(=O)CC[C@@H]12` [testolactone, D-homo-17a-oxaandrosta-1,4-diene-3,17-dione, reference compound], the “% AROMATASE INHIBITION” value (rat ovarian aromatase; 30 mg/kg p.o.) was 2%.

For `C[C@]12C=CC(=O)C=C1CC[C@@H]1[C@@H]2CC[C@]2(C)C(=O)CC[C@@H]12` [androsta-1,4-diene-3,17-dione, reference compound], the “% AROMATASE INHIBITION” value (rat ovarian aromatase; 30 mg/kg p.o.) was 37%.

In the case of `C[C@]12C=CC(=O)C=C1[C@@H](N)C[C@@H]1[C@@H]2CC[C@]2(C)C(=O)CC[C@@H]12` [FCE 24968, 6α-aminoandrosta-1,4-diene-3,17-dione], the “in vitro aromatase inhibiting potency compared with reference compounds (in words)” value [1] is reported as “less potent in vitro than, e.g., 4-OH-A”, the “% AROMATASE INHIBITION” value (rat ovarian aromatase; 10 mg/kg p.o.) is reported as 53% and the “effectiveness in vivo” value (rat ovarian aromatase; 10 mg/kg) is reported as “very effective”. The “% AROMATASE INHIBITION” value (rat ovarian aromatase; 30 mg/kg p.o.) was 71%.
